These results are taken from patent US4845130A, “Antihyperlipidemic amines” (United States Borax & Chemical Corporation, priority 1988, dated 1989).

One assay deals with serum triglyceride. Put plainly: Serum triglyceride (Fisher-Hycel Triglyceride Test Kit) in mice. The class given is in vivo, male CF1 mice. To be noted: Mus musculus, 384 h, Day 16; for response vs control in vivo at 20 mg/kg: 20 mg./kg./day intraparenterally; for response vs control in vivo at 8 mg/kg: 8 mg./kg/day, procedure of Example 1. As to the method:
(§1) For determining hypolipidemic activity, representative compounds of this invention were suspended in an aqueous 1% carboxymethylcellulose solution and tested at 20 mg./kg./ day administered intraparenterally to male CF1 mice (~25 g.). Six animals were used for each test. On days 9 and 16, blood was collected by tail vein bleeding and the serum separated by centrifugation for three minutes. Serum cholesterol levels were determined by a modified Liebermann-Burchard reaction. Serum triglyceride levels were also determined at 16 days using a Fisher-Hycel Triglyceride Test Kit.
(§2) The procedure of Example 1 was repeated with octade-cylamine and N,N-dimethyl-n-octadecylamine at a dosage of 8 mg./kg/ day.

Assay [1] deals with serum cholesterol. Put plainly: Serum cholesterol (modified Liebermann-Burchard reaction) in mice. The class given is in vivo, male CF1 mice. To be noted: for response vs control in vivo at 20 mg/kg: Mus musculus, 20 mg./kg./day intraparenterally, male CF1 mice; for Serum cholesterol, % of Control, Day 9 / Serum cholesterol, % of Control, Day 16: 8 mg./kg/day, procedure of Example 1. The method, then:
as §1, §2

In assay [2] the test system is serum cholesterol. The assay is described as above. Format: in vivo. The settings on record: Mus musculus, clofibrate at its therapeutic dose of 150 mg., male CF1 mice.
In assay [3] the test system is ATP dependent citrate lyase. To be noted: in vivo; cited from earlier work.
In another assay the test system is cholesterol excretion. To be noted: mouse, in vivo; cited from earlier work.
Assay [4] has as its system phosphatidate phosphohydrolase. To be noted: in vivo; cited from earlier work.
The test system of the next assay is acetyl CoA synthetase. To be noted: in vivo; cited from earlier work.
For assay [5] the following is noted: 2.5 mg/kg in mice; cited from earlier work.
Setting [6] is: 216 h, Day 9, read-out: Serum Cholesterol, % of Control, Day 9.
Where [7] appears, read: 384 h, Day 16, read-out: Serum Cholesterol, % of Control, Day 16.

Like-named read-outs stand apart in the source and are kept apart here.

Consider `CCCCCCCCCCCCCCCCN` [1-hexadecylamine], for which the response vs control in vivo at 20 mg/kg amounted to 63 ± 6% in the assay on serum triglyceride (male CF1 mice), 39 ± 5% in the assay with serum cholesterol [1] (setting [6]) and 35 ± 4% in the assay on serum cholesterol [1] (setting [7]).
Consider `CCCCCCCCCCCCCCN` [1-tetradecylamine], for which the response vs control in vivo at 20 mg/kg was found to be 54 ± 6% with serum triglyceride (male CF1 mice), 50 ± 4% in the assay with serum cholesterol [1] (setting [6]) and 34 ± 3% in the assay with serum cholesterol [1] (setting [7]).
Take `CCCCCCCCCCCCCCCCCCN(C)C` [N,N-dimethyl-n-octadecylamine]: the response vs control in vivo at 8 mg/kg in the assay with serum triglyceride was 84 ± 6%. In addition, the response vs control in vivo at 20 mg/kg in the assay with serum triglyceride (male CF1 mice) amounted to 56 ± 3%; in the assay on serum cholesterol [1] (setting [6]) it was 76 ± 6%; in the assay on serum cholesterol [1] (setting [7]), 61 ± 5%. The “Serum cholesterol, % of Control, Day 9” value in the assay with serum cholesterol [1] (Day 9) was 91 ± 5 % of Control. For the same molecule, the “Serum cholesterol, % of Control, Day 16” value with serum cholesterol [1] (Day 16) was 79 ± 5 % of Control.
Regarding `CCCCCCCCCCCCCCCCCCNC` [N-methyloctadecylamine], the response vs control in vivo at 20 mg/kg with serum triglyceride (male CF1 mice) was 64 ± 6%; with serum cholesterol [1] (setting [6]) it was 51 ± 5%; with serum cholesterol [1] (setting [7]), 44 ± 4%.
With `CCOC(=O)C(C)(C)Oc1ccc(Cl)cc1` [clofibrate], the response vs control in vivo at 150 mg with serum triglyceride (clofibrate at its therapeutic dose of 150 mg., male CF1 mice) is 75 ± 5%; in the assay with serum cholesterol [2] (setting [6]), 88 ± 7%; in the assay on serum cholesterol [2] (setting [7]), 87 ± 5%.
`CCCCCCCCCCN` [decylamine]: the response vs control in vivo at 20 mg/kg in the assay with serum triglyceride (male CF1 mice) amounted to 59 ± 6%; in the assay on serum cholesterol [1] (setting [6]) it was 48 ± 4%; with serum cholesterol [1] (setting [7]) it was 38 ± 5%.
As for `CCCCCCCCCCCCN` [dodecylamine], the response vs control in vivo at 20 mg/kg with serum triglyceride (male CF1 mice) came to 64 ± 4%; with serum cholesterol [1] (setting [6]), 63 ± 6%; with serum cholesterol [1] (setting [7]), 61 ± 5%.
In the assay on serum triglyceride, `CCCCCCCCCCCCCCCCCCN` [octadecylamine] displayed a response vs control in vivo at 8 mg/kg of 60 ± 5%. In addition, the response vs control in vivo at 20 mg/kg with serum triglyceride (male CF1 mice) turned out to be 56 ± 4%; with serum cholesterol [1] (setting [6]), 72 ± 5%; in the assay on serum cholesterol [1] (setting [7]), 64 ± 4%. The “Serum cholesterol, % of Control, Day 9” value with serum cholesterol [1] (Day 9) is recorded as 63 ± 3 % of Control. Moreover, the “Serum cholesterol, % of Control, Day 16” value with serum cholesterol [1] (Day 16) is listed as 57 ± 4 % of Control.
As to `CCCCCCCCCCCCCN` [tridecylamine], the response vs control in vivo at 20 mg/kg with serum triglyceride (male CF1 mice) amounted to 73 ± 7%; with serum cholesterol [1] (setting [6]), 69 ± 5%; in the assay with serum cholesterol [1] (setting [7]), 67 ± 5%.
On the same counts, the results for `CCCCCCCCCCCN` [undecylamine] are 66 ± 5%, 61 ± 5% and 57 ± 6%.
For “tetrakis-u-(trimethylamine-borane carboxyato) bis(trimethylaminecarboxyborane)-dicopper (II)”, the “ATP dependent citrate lyase” value in assay [3] is “lower”. In the assay with cholesterol excretion, the “cholesterol excretion from the body” value is “accelerate cholesterol excretion from the body”. Moreover, the “phosphatidate phosphohydrolase” value in assay [4] is recorded as “lower”. The “acetyl CoA synthetase” value in the assay with acetyl CoA synthetase is given as “lower”. In addition, the “hypolipidemic activity” value in assay [5] is “potent hypolipidemic agent”.
